Experimental data: patent publication US20220315554A1, “COMPOUNDS COMPRISING A […] LIGAND AND USE THEREOF” (priority 2019, published 2022)
Numbered stars: 1 amine (or outer) side, 2 acyl side, 3 side chain; on linkers, the order of the positions; unused ones are H or OH. Bridge positions count the residues as written; N and C are the ends. Square brackets hold non-standard residues; d marks the D form. Peptide text beside a SMILES is read from it. * marks the point of attachment. X2 = O=C(O)CN1CCN(CC(=O)O)CCN(CC(=O)NCCCOCCOCCOCCCN*)CCN(CC(=O)O)CC1; DOTA = O=C(O)CN1CCN(CC(=O)O)CCN(CC(=O)*)CCN(CC(=O)O)CC1; mXylylene = c1cc(C[*:1])cc(C[*:2])c1; 3Pal = N[C@@H](Cc1cccnc1)C(=O)O; Suc = O=C(CCC(=O)[*:2])[*:1]; Nle = CCCC[C@H](N)C(=O)O

What was measured:
Human recombinant FAP = biological target: T1, Human recombinant FAP (Homo sapiens, UniProt Q12884); assay: FRET-based FAP protease activity assay; type: biochemical; set-up: purchased R&D systems 3715-SE; conditions: pIC50 Category (Activity), recombinant human FAP, FRET substrate, 37° C.
T1 sequence (Q12884 1-760): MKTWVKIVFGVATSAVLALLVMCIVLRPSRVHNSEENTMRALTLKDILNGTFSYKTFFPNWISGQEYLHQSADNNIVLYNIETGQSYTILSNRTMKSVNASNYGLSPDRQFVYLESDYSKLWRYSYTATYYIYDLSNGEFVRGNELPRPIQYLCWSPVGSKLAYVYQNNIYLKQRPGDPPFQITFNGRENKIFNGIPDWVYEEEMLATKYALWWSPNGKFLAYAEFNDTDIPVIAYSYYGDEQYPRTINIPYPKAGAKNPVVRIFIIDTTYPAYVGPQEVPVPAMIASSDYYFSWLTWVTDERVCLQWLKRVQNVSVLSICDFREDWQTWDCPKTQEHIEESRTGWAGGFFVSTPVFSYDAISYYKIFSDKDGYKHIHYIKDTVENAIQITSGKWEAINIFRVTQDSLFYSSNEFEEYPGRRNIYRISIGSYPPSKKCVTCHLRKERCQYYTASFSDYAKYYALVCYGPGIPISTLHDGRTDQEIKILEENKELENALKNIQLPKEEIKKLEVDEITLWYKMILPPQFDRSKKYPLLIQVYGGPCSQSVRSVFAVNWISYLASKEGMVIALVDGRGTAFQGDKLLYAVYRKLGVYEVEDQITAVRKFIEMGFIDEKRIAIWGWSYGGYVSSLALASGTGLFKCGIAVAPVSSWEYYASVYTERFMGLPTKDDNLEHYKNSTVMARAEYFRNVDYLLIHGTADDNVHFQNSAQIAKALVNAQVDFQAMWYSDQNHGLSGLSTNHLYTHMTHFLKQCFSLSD

[1] = biological target: T2, FAP-expressing human WI-38 fibroblasts (Homo sapiens, UniProt Q12884); assay: Competitive FACS binding assay; conditions: pIC50 Category (FACS), competition with 3 nM Cy5-labeled compound, WI-38 fibroblasts, 4° C., 1 hour
T2 construct: FAP-expressing human WI-38 fibroblasts (ECACC) were cultured in EMEM; host or cells: WI-38 human fibroblasts
T2 sequence (Q12884 1-760): T1 sequence (Q12884 1-760)
Description: Cells were analyzed in an Attune NxT flow cytometer. […]

Compound | IC50 (Human recombinant FAP) | IC50 [1]
CCCC[C@H](NC(=O)CN1CCN(CC(=O)O)CCN(CC(=O)O)CCN(CC(=O)O)CC1)C(=O)N[C@H]1CSCc2cccc(c2)CSC[C@@H](C(=O)N[C@@H](CC(=O)O)C(=O)N[C@@H](Cc2c[nH]cn2)C(=O)N[C@@H](Cc2ccccc2)C(=O)N[C@@H](CCCNC(=N)N)C(=O)N[C@@H](CC(=O)O)C(N)=O)NC(=O)[C@H](Cc2ccccc2)NC(=O)[C@H](CCC(=O)O)NC(=O)[C@H]([C@@H](C)O)NC(=O)[C@@H]2CCCN2C(=O)[C@@H]2CCCN2C1=O [3BP-3088, DOTA-Nle-[Cys(3MeBn)-Pro-Pro-Thr-Glu-Phe-Cys]-Asp-His-Phe-Arg-Asp-NH2] ({DOTA}-[Nle]CPPTEFCDHFRD-NH2; linker 2-8 via mXylylene) | 100 to 794 nM | 100 to 794 nM
CSCC[C@H](NC(=O)CN1CCN(CC(=O)O)CCN(CC(=O)O)CCN(CC(=O)O)CC1)C(=O)N[C@H]1CSCc2cccc(c2)CSC[C@@H](C(=O)N[C@@H](CC(=O)O)C(=O)N[C@@H](Cc2c[nH]cn2)C(=O)N[C@@H](Cc2ccccc2)C(=O)N[C@@H](CCCNC(=N)N)C(=O)N[C@@H](CC(=O)O)C(N)=O)NC(=O)[C@H](Cc2ccccc2)NC(=O)[C@H](CCC(=O)O)NC(=O)[C@H]([C@@H](C)O)NC(=O)[C@@H]2CCCN2C(=O)[C@@H]2CCCN2C1=O [3BP-3170, DOTA-Met-[Cys(3MeBn)-Pro-Pro-Thr-Glu-Phe-Cys]-Asp-His-Phe-Arg-Asp-NH2] ({DOTA}-MCPPTEFCDHFRD-NH2; linker 2-8 via mXylylene) | 100 to 794 nM | 100 to 794 nM
C[C@@H](O)[C@@H]1NC(=O)[C@@H]2CCCN2C(=O)[C@@H]2CCCN2C(=O)[C@@H](NC(=O)[C@H](Cc2ccccc2)NC(=O)CCC(=O)NCCCOCCOCCOCCCNC(=O)CN2CCN(CC(=O)O)CCN(CC(=O)O)CCN(CC(=O)O)CC2)CSCc2cccc(c2)CSC[C@@H](C(=O)N[C@@H](CC(=O)O)C(=O)N[C@@H](Cc2c[nH]cn2)C(=O)N[C@@H](Cc2ccccc2)C(=O)N[C@@H](CCCNC(=N)N)C(=O)N[C@@H](CC(=O)O)C(N)=O)NC(=O)[C@H](Cc2ccccc2)NC(=O)[C@H](CCC(=O)O)NC1=O [3BP-3171, DOTA-Ttds-Phe-[Cys(3MeBn)-Pro-Pro-Thr-Glu-Phe-Cys]-Asp-His-Phe-Arg-Asp-NH2] ({X2-Suc}-FCPPTEFCDHFRD-NH2; linker 2-8 via mXylylene) | 10 to 79.4 nM | 10 to 79.4 nM
CC(C)C[C@H](NC(=O)CCC(=O)NCCCOCCOCCOCCOCCCNC(=O)CN1CCN(CC(=O)O)CCN(CC(=O)O)CCN(CC(=O)O)CC1)C(=O)N[C@H]1CSCc2cccc(c2)CSC[C@@H](C(=O)N[C@@H](CC(=O)O)C(=O)N[C@@H](Cc2c[nH]cn2)C(=O)N[C@@H](Cc2ccccc2)C(=O)N[C@@H](CCCNC(=N)N)C(=O)N[C@@H](CC(=O)O)C(N)=O)NC(=O)[C@H](Cc2ccccc2)NC(=O)[C@H](CCC(=O)O)NC(=O)[C@H]2NC(=O)[C@@H]3C(CCN3C(=O)[C@@H]3CCCN3C1=O)[C@H]2O [3BP-3172, DOTA-Ttds-Leu-[Cys(3MeBn)-Pro-Pro-Thr-Glu-Phe-Cys]-Asp-His-Phe-Arg-Asp-NH2] | < 10 nM | < 10 nM
C[C@@H](O)[C@@H]1NC(=O)[C@@H]2CCCN2C(=O)[C@@H]2CCCN2C(=O)[C@@H](NC(=O)[C@H](CCC(=O)O)NC(=O)CCC(=O)NCCCOCCOCCOCCCNC(=O)CN2CCN(CC(=O)O)CCN(CC(=O)O)CCN(CC(=O)O)CC2)CSCc2cccc(c2)CSC[C@@H](C(=O)N[C@@H](CC(=O)O)C(=O)N[C@@H](Cc2c[nH]cn2)C(=O)N[C@@H](Cc2ccccc2)C(=O)N[C@@H](CCCNC(=N)N)C(=O)N[C@@H](CC(=O)O)C(N)=O)NC(=O)[C@H](Cc2ccccc2)NC(=O)[C@H](CCC(=O)O)NC1=O [3BP-3173, DOTA-Ttds-Glu-[Cys(3MeBn)-Pro-Pro-Thr-Glu-Phe-Cys]-Asp-His-Phe-Arg-Asp-NH2] ({X2-Suc}-ECPPTEFCDHFRD-NH2; linker 2-8 via mXylylene) | 10 to 79.4 nM | 10 to 79.4 nM
C[C@@H](O)[C@@H]1NC(=O)[C@@H]2CCCN2C(=O)[C@@H]2CCCN2C(=O)[C@@H](NC(=O)CN2CCN(CC(=O)O)CCN(CC(=O)O)CCN(CC(=O)O)CC2)CSCc2cccc(c2)CSC[C@@H](C(=O)N[C@@H](CC(=O)O)C(=O)N[C@@H](Cc2c[nH]cn2)C(=O)N[C@@H](Cc2ccccc2)C(=O)N[C@@H](CCCNC(=N)N)C(=O)N[C@@H](CC(=O)O)C(N)=O)NC(=O)[C@H](Cc2ccccc2)NC(=O)[C@H](CCC(=O)O)NC1=O [3BP-3174, DOTA-[Cys(3MeBn)-Pro-Pro-Thr-Glu-Phe-Cys]-Asp-His-Phe-Arg-Asp-NH2] ({DOTA}-CPPTEFCDHFRD-NH2; linker 1-7 via mXylylene) | 100 to 794 nM | 100 to 794 nM
CSCC[C@H](NC(C)=O)C(=O)N[C@H]1CSCc2cccc(c2)CSC[C@@H](C(=O)N[C@@H](CC(=O)O)C(=O)N[C@@H](Cc2c[nH]cn2)C(=O)N[C@@H](Cc2ccccc2)C(=O)N[C@@H](CCCNC(=N)N)C(=O)N[C@@H](CC(=O)O)C(N)=O)NC(=O)[C@H](Cc2ccccc2)NC(=O)[C@H](CCC(=O)O)NC(=O)[C@H]([C@@H](C)O)NC(=O)[C@@H]2CCCN2C(=O)[C@H]2CCCN2C1=O [3BP-3176, Ac-Met-[Cys(3MeBn)-pro-Pro-Thr-Glu-Phe-Cys]-Asp-His-Phe-Arg-Asp-NH2] (Ac-MC[dP]PTEFCDHFRD-NH2; linker 2-8 via mXylylene) | 100 to 794 nM | 100 to 794 nM
CSCC[C@H](NC(C)=O)C(=O)N[C@H]1CSCc2cccc(c2)CSC[C@@H](C(=O)N[C@@H](CC(=O)O)C(=O)N[C@@H](Cc2c[nH]cn2)C(=O)N[C@@H](Cc2ccccc2)C(=O)N[C@@H](CCCNC(=N)N)C(=O)N[C@@H](CC(=O)O)C(N)=O)NC(=O)[C@H](Cc2ccccc2)NC(=O)[C@H](CCC(=O)O)NC(=O)[C@@H]([C@H](C)O)NC(=O)[C@@H]2CCCN2C(=O)[C@@H]2CCCN2C1=O [3BP-3178, Ac-Met-[Cys(3MeBn)-Pro-Pro-thr-Glu-Phe-Cys]-Asp-His-Phe-Arg-Asp-NH2] (Ac-MCPP[dT]EFCDHFRD-NH2; linker 2-8 via mXylylene) | 10 to 79.4 nM | 10 to 79.4 nM
CSCC[C@H](NC(C)=O)C(=O)N[C@H]1CSCc2cccc(c2)CSC[C@@H](C(=O)N[C@@H](CC(=O)O)C(=O)N[C@@H](Cc2c[nH]cn2)C(=O)N[C@@H](Cc2ccccc2)C(=O)N[C@@H](CCCNC(=N)N)C(=O)N[C@@H](CC(=O)O)C(N)=O)NC(=O)[C@H](Cc2ccccc2)NC(=O)[C@@H](CCC(=O)O)NC(=O)[C@H]([C@@H](C)O)NC(=O)[C@@H]2CCCN2C(=O)[C@@H]2CCCN2C1=O [3BP-3179, Ac-Met-[Cys(3MeBn)-Pro-Pro-Thr-glu-Phe-Cys]-Asp-His-Phe-Arg-Asp-NH2] (Ac-MCPPT[dE]FCDHFRD-NH2; linker 2-8 via mXylylene) | 100 to 794 nM | 10 to 79.4 nM
CSCC[C@H](NC(C)=O)C(=O)N[C@H]1CSCc2cccc(c2)CSC[C@@H](C(=O)N[C@@H](CC(=O)O)C(=O)N[C@@H](Cc2c[nH]cn2)C(=O)N[C@@H](Cc2ccccc2)C(=O)N[C@@H](CCCNC(=N)N)C(=O)N[C@@H](CC(=O)O)C(N)=O)NC(=O)[C@@H](Cc2ccccc2)NC(=O)[C@H](CCC(=O)O)NC(=O)[C@H]([C@@H](C)O)NC(=O)[C@@H]2CCCN2C(=O)[C@@H]2CCCN2C1=O [3BP-3180, Ac-Met-[Cys(3MeBn)-Pro-Pro-Thr-Glu-phe-Cys]-Asp-His-Phe-Arg-Asp-NH2] (Ac-MCPPTE[dF]CDHFRD-NH2; linker 2-8 via mXylylene) | 100 to 794 nM | 100 to 794 nM
CSCC[C@H](NC(C)=O)C(=O)N[C@H]1CSCc2cccc(c2)CSC[C@H](C(=O)N[C@@H](CC(=O)O)C(=O)N[C@@H](Cc2c[nH]cn2)C(=O)N[C@@H](Cc2ccccc2)C(=O)N[C@@H](CCCNC(=N)N)C(=O)N[C@@H](CC(=O)O)C(N)=O)NC(=O)[C@H](Cc2ccccc2)NC(=O)[C@H](CCC(=O)O)NC(=O)[C@H]([C@@H](C)O)NC(=O)[C@@H]2CCCN2C(=O)[C@@H]2CCCN2C1=O [3BP-3182, Ac-Met-[Cys(3MeBn)-Pro-Pro-Thr-Glu-Phe-cys]-Asp-His-Phe-Arg-Asp-NH2] (Ac-MCPPTEF[dC]DHFRD-NH2; linker 2-8 via mXylylene) | 10 to 79.4 nM | 10 to 79.4 nM
CSCC[C@H](NC(C)=O)C(=O)N[C@H]1CSCc2cccc(c2)CSC[C@@H](C(=O)N[C@@H](CC(=O)O)C(=O)N[C@@H](Cc2c[nH]cn2)C(=O)N[C@@H](Cc2cccnc2)C(=O)N[C@@H](CCCNC(=N)N)C(=O)N[C@@H](CC(=O)O)C(N)=O)NC(=O)[C@H](Cc2ccccc2)NC(=O)[C@H](CCC(=O)O)NC(=O)[C@H]([C@@H](C)O)NC(=O)[C@@H]2CCCN2C(=O)[C@@H]2CCCN2C1=O [3BP-3192, Ac-Met-[Cys(3MeBn)-Pro-Pro-Thr-Glu-Phe-Cys]-Asp-His-Mpa-Arg-Asp-NH2] (Ac-MCPPTEFCDH[3Pal]RD-NH2; linker 2-8 via mXylylene) | < 10 nM | < 10 nM
